The record followed here is BindingDB's records for doi:10.1124/jpet.104.066092 (Wyeth Research, 2004).

What is called Ki is the equilibrium dissociation constant of an inhibitor or competing ligand from its target.

The assay addresses Glutamate receptor ionotropic, NMDA 1 (Rattus norvegicus, UniProt P35439).

In turn, `O=C(O)[C@@H]1C[C@H](CP(=O)(O)O)CCN1` [Selfotel] came in with a Ki of more than 10 µM.
